Laboratory results as given in patent US20210293788A1, “METHOD FOR IDENTIFYING A CHEMICAL COMPOUND OR AGENT INDUCING UBIQUITINATION OF A PROTEIN OF INTEREST” (CeMM - Forschungszentrum fur Molekulare Medizin GmbH, priority 2018, published 2021).
Entries after “also recorded” stand apart in the source; their conditions may differ.

Legend:
DCAF15 [1] = biological target: T1, DCAF15 (Homo sapiens, UniProt Q66K64); assay: High-throughput screen for DCAF15 stabilization in 293T cells expressing DCAF15 HiBit fusion; assay type: cell-based; conditions: 10 uM, 384 well, measurements every 120 minutes
T1 construct: expressed in transfected cells
T1 sequence (Q66K64 whole entry, the tested form may be a part): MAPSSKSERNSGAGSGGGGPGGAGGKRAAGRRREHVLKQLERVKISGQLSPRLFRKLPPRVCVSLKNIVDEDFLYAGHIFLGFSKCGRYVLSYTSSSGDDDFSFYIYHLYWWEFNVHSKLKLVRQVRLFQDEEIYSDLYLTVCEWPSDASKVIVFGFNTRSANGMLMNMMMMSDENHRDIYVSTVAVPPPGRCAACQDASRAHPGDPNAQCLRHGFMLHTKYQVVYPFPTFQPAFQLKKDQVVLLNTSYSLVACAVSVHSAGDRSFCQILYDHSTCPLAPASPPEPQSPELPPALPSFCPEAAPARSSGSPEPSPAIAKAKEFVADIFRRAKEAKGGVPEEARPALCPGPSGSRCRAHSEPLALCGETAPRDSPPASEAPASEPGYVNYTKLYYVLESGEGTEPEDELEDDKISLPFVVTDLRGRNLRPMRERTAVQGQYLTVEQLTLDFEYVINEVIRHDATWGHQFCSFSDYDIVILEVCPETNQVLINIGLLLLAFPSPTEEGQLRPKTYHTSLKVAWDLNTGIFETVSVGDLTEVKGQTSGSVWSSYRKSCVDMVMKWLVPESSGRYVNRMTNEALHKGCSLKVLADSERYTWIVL
From the text: Subsequently, in this context, the E3 ligase substrate receptor (SR) stabilization approach was employed in order to identify novel chemical matter that can bind and chemically re-program the substrate receptor DCAF15. To be able to screen a collection of around 8000 small-molecules, a cellular system was developed that enabled monitoring of DCAF15 levels in live cells in multi-well format. To that end, DCAF15 was first knocked out in 293T cells via CRISPR/Cas9 technology. Then, DCAF15 was stably expressed as a HiBit® fusion protein in these cells. After further transducing these cells with LgBit, this allowed live-cell tracing of DCAF15 levels in 384 well format by measuring bioluminescence (FIG. 18). In brief, cells were seeded at a concentration of 250′000 cells/ml in DMEM+10% FCS+25 mM Hepes. The luciferase substrate Endurazine was added at concentrations recommended by the manufacturer. Small-molecules were added at a concentration of 10 uM, and their effect on DCAF15 levels was assayed by continuous bioluminescent imaging (measurements were taken every 120 minutes). […] The known DCAF15 molecular glue indisulam (see FIG. 7) was used as a positive control. In brief, indisulam is known to act as a DCAF15-dependent molecular glue that binds DCAF15 and induced proximity between DCAF15 and RBM39, leading to the degradation of the latter.

RBM39 [2] = biological target: T2, RBM39 (Homo sapiens, UniProt Q14498+Q66K64); assay: Western blot of RBM39 levels in KBM7 WT versus DCAF15-deficient cells; assay type: cell-based; set-up: endogenous in cells; conditions: 12 or 16 h treatment
Method: (§1) Given the structural similarity to indisulam, it was assayed if the two new test compounds would similarly lead to the degradation of RBM39 in a DCAF15-dependent manner. Towards that end, their effect on RBM39 levels in wildype cells as well as cells deficient for DCAF15 levels was tested. KBM7 (WT or knockout, FIG. 20) as well as 293T cells (DCAF15-HiBit overexpression vs knockout, see FIG. 21) were tested in various conditions of dCEMM.1 and/or dCEMM.2, comparing their effect to indisulam.

KBM7 cells = assay: Dose-ranging cellular viability assays in neddylation-impaired isogenic KBM7 cells; assay type: cell-based, human
Method: KBM7 cells mutated for five core genes were isolated and the underlying CRISPR-induced mutations were truncations leading to full knockouts (CAND1) or hypomorphic alleles (UBE2M, COPS8, COPS7B, GPS1). […] The observable shift in efficacy was at least 10-fold and up to 1000-fold, thus providing excellent signal to noise ratios. In sum, neddylation-impaired (NEDD^mut) cell line can be applied to find novel, yet uncharacterized MGs.
This is further exemplified when said cells are treated with the compound CC-885 (a molecular glue that reprograms the substrate receptor cereblon/CRBN to degrade GSPT1), or the PROTAC® compound THAL-SNS-032 (known to reprogram the substrate receptor cereblon/CRBN to degrade the cyclin dependent kinase 9, CDK9) (both see appended FIG. 22).
However, not for every cullin RING ligase (CRL), modifications of the COP9 signalosome subunit 8 (COPS8) or CAND1 (Cullin-associated NEDD8-dissociated protein 1; a substrate receptor exchange factor) lead to an ensuing destabilization via auto-degradation. An example for this is the substrate receptor VHL(von-Hippel-Lindau), which is part of the CRL2^VHL ligase complex. […] Therefore, measuring differential sensitivity of cells manipulated to contain altered neddylation states to a molecular glue/PROTAC® compound is a feasible surrogate to measure whether the substrate receptor that is reprogrammed by said molecular glue/PROTAC® undergoes destabilization/auto-degradation upon altering the neddylation states.

RBM39 [3] = biological target: T2, RBM39; assay: Western blot of RBM39 levels in 293T DCAF15 KO versus DCAF15-reconstituted cells; assay type: cell-based; set-up: endogenous in cells; host or cells: 293T DCAF15 KO and 293T reconstituted with tagged DCAF15; conditions: 293T cells reconstituted with tagged DCAF15, 10 h treatment
Method: as §1

DCAF15 [4] = biological target: T1, DCAF15; assay: DCAF15 HiBit/LgBit luciferase assay (knock-in or ectopic, live-cell or lytic detection); assay type: cell-based
Method: Generation of HiBit DCAF15 knock-in cells: HEK293t WT cells at 70-80% confluency were transiently transfected in a 6 well plate with a mix of 3 ug Cas9-sgRNA vector (PX458, addgene #48138, containing sgRNA [NT]), 6 ug of single stranded oligonucleotide donor (ssOND, 20 bp homology flanking the cut site) and 3.6 ug polyethylenimine (FIGS. 10 and 12). 72 hrs post-transfection cells were sorted (SH800 Cell sorter, SONY) for GFP positive cells and recovered for 24 hrs in media. Cells were subsequently seeded at a limiting dilution to generate single clones. Clones were tested after outgrowth for HiBit expression by seeding clonal cells in a black clear bottom 384 well plate and adding Nano-Glo HiBit Lytic buffer (Promega, N3030) reconstituted with recombinant LgBit and Nano-Glo HiBit Lytic Substrate in a 1:1 ratio. HiBit-expressing clones were validated by western blotting and detection of luciferase signal (Promega, N2410) at the correct size. For live cell luciferase detection (FIGS. 11 and 13) 7000 HEK293t cells with a HiBit knock-in at the N-terminus of DCAF15 and stable ectopic expression of LgBit were seeded in 10 uL per well into a black, clear-bottom 384 well plate (Corning, #3764) and incubated over night. 20 uL of media containing 1× Endurazine (Promega, N2570) was added to each well and incubated for 1 hour followed by a baseline luciferase measurement using an EnVision plate reader (Perkin Elmer). Subsequently CSN5i-3 or an equal volume of DMSO was added in 10 uL of media to a final concentration of 500 nM in the assay volume of 40 uL. Luciferase signal was measured hourly for 24 hours. For lytic HiBit detection (FIGS. 11 and 14) 10000 cells were seeded in 10 uL per well into a black clear bottom 384 well plate. After recovery cells were treated by addition of iCSN5-3 or an equal volume of DMSO in 10 uL of media to the cells. After the indicated treatment time cells were lysed by adding 20 uL Nano-Glo HiBit Lytic buffer (Promega, N3030) reconstituted with recombinant LgBit and Nano-Glo HiBit Lytic Substrate. Luciferase signal of each well was normalized to the mean DMSO luciferase signal yielding fold-change over DMSO. Luciferase signal was detected essentially as stated for FIG. 13 with the exception that indisulam (Sigma-Aldrich, SML1225) was added together with CSN5i-3 to cells in 10 uL of media to reach the indicated final concentration (FIG. 15). Luciferase signal of each well and timepoint was normalized to the mean DMSO luciferase signal yielding fold-change over DMSO. […] Luciferase signal was detected essentially as stated for FIG. 15 with the exception that indisulam and dCEMM.1 were added together with iCSN5-3 to cells in the 10 uL treatment to a final concertation of 10 uM (FIG. 17). Luciferase signal of each well and timepoint was normalized to the mean DMSO luciferase signal yielding fold-change over DMSO.

- RBM39 levels (western blot) (RBM39 [2]): destabilization
- RBM39 levels (western blot) (RBM39 [3]): destabilization
Structure (SMILES): NS(=O)(=O)c1ccc(S(=O)(=O)Nc2cccc3c(Cl)c[nH]c23)cc1 [indisulam]
- DCAF15 stabilization (relative luciferase signal over time) (DCAF15 [1]): pronounced stabilization of DCAF15 over time; also recorded: identified as positive hits; also recorded: significant stabilization of DCAF15 over time
- Cytotoxic activity / sensitivity in COPS8- or CAND1-modified cells (KBM7 cells; KBM7 cells modified in COPS8 or CAND1 versus non-modified control): resistance to indisulam in both genetic backgrounds; also recorded: reduced activity
- Resistance of mutant cells in cellular viability assay (KBM7 cells; KBM7 cells mutated in CAND1, UBE2M, COPS8, COPS7B or GPS1 versus wild type): caused resistance
- DCAF15 re-stabilization (luciferase, fold-change over DMSO) (DCAF15 [4]; HiBit knock-in live cells, added together with CSN5i-3 (FIG. 15)): rescues DCAF15 from auto-degradation; also recorded: DCAF15 re-stabilization
- DCAF15 re-stabilization (luciferase, fold-change over DMSO) (DCAF15 [4]; live cells, 10 uM, added together with CSN5i-3 (FIG. 17)): rescues DCAF15 from auto-degradation; also recorded: DCAF15 re-stabilization
